Laboratory results as given in patent US8314130B2, “Compounds inclunding substituted pyridines for inflammation and immune-related uses” (Synta Pharmaceuticals Corp., priority 2008, dated 2012).
Like-named read-outs stand apart in the source and are kept apart here.

Key:
[1] = test system: IL-2; experiment: Inhibition of IL-2 production in PHA-activated Jurkat cells (1% FBS), ELISA; type: cell-based; details: Homo sapiens, read-out: IL-2 current inhibition Jurkat/PHA/1% FBS IC50
Method: Jurkat cells were placed in a 96 well plate (0.5 million cells per well in 1% FBS medium), and then a test compound of this invention was added at different concentrations. After 10 minutes, the cells were activated with PHA (final concentration 2.5 μg/mL) and incubated for 20 hours at 37° C. under 5% CO2. The final volume was 200 Following incubation, the cells were centrifuged, and the supernatants collected and stored at −70° C. prior to assaying for IL-2 production. A commercial ELISA kit (IL-2 Eli-pair, Diaclone Research, Besancon, France) was used to detect production of IL-2, from which dose response curves were obtained. The IC50 value was calculated as the concentration at which 50% of maximum IL-2 production after stimulation was inhibited versus a non-stimulation control.

[2] = molecular target: T1, CRACM1/STIM1 (Homo sapiens, UniProt Q96D31); experiment: ICRAC current inhibition in CRACM1/STIM1-CHOK1 cells (patch clamp); type: cell-based; details: 500 nM, activity class
T1 construct: Full length human Stim1, CracM1, CracM2 and CracM3 cDNA
T1 sequence (Q96D31 whole entry): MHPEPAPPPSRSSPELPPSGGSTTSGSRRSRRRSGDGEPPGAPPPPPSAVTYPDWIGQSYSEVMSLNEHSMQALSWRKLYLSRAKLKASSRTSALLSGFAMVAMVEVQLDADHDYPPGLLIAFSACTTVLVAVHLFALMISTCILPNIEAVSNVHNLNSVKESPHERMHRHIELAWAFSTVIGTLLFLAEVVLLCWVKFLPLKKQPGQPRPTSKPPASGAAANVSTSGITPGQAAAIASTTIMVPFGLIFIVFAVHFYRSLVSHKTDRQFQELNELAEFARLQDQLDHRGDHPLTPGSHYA
Method: Manual patch clamp experiments are conducted in the tight-seal whole-cell configuration at room temperature (21-25° C.). Patch pipettes are fashioned from borosilicate glass capillary tubes and have resistances between 2-4 MO after filling with standard intracellular solution. High resolution current recordings are acquired with a computer-based patch clamp amplifier system (EPC-10, HEKA, Lambrecht, Germany). All voltages are corrected for a liquid junction potential of 10 mV between external and internal solutions with glutamate as the intracellular anion. Currents are filtered at 2.9 kHz and digitized at 10 μs intervals. Capacitive currents and series resistance are determined and corrected before each voltage ramp using the automatic capacitance compensation of the EPC-10.
Automated patch clamp experiments are conducted with the QPatch 16 (Sophion Bioscience, Ballerup, Denmark) at room temperature (21-25° C.). Immediately following the establishment of giga-seal whole-cell configuration, the cells membrane potential is clamped at 0 mV. Voltage ramps of 50 ms duration spanning the voltage range of −100 to +100 mV are then stimulated at a rate of 0.33 Hz. Currents are filtered at 2.9 kHz and digitized at 200 μs intervals. Capacitive currents and series resistance are determined and corrected before each voltage ramp using the automatic capacitance compensation.
In general, a whole cell patch clamp method is used to examine the effects of a compound of the invention on a channel(s) that mediates ICRAC. In such experiments, a baseline ICRAC measurement is established within the first 70 voltage ramps, or 140 seconds, for a patched cell. Then the cells are perfused with the compound to be tested and the effect of the compound on ICRAC is measured for at least an additional 440 to 500 seconds. A compound that modulates ICRAC (e.g., inhibits) is a compound that is useful in the invention for modulating CRAC ion channel activity.
ICRAC currents are measured using 50 msec voltage ramps between −100 mV to +100 mV. The voltage ramps are stimulated every 2 seconds for the first 70 sweeps, then every 5 seconds for the remainder of the experiment. The membrane potential is held at 0 mV between the test ramps. In a typical experiment, the peak inward currents will develop within 50-100 seconds. Once the ICRAC current is stabilized, the cells are perfused with a test compound in the extracellular solution for at least an additional 500 seconds.
Off-line analysis with the Heka PatchMaster software is used to separate the ICRAC membrane current from the cells basal background currents. In a typical recording, InsP3 stimulated ICRAC currents begin to develop in 6 to 12 seconds after whole cell is established. Therefore, the first 1-4 voltage ramps represent the basal membrane currents in the absence of ICRAC and the average value is subtracted from all subsequent traces. The current value at −80 mV for each ramp trace is then measured and plotted against time. The resulting current versus time data is exported into a Microsoft Excel spreadsheet. The % ICRAC inhibition in each cell is calculated by comparing the amount of current just prior to the compound perfusion to the amount of current after the cells has been perfused with the compound for 440-500 seconds. The IC50 value and Hill coefficient for each compound is estimated by fitting all the individual data points to a single-site Hill equation.
TREx™-CHO cells were transfected with human Stim1 (recombinant DNA in pcDNA4/TO/myc-His™ A with a myc epitope tag in the N-terminal) and either CracM1, CracM2 or CracM3 (recombinant DNA in pcDNA 3.1 with a HA epitope tag in the N-terminal). Stably expressing cells were selected by growing the transfected cells in antibiotics for two to three weeks. Individual cell clones were isolated via serial dilution. […]

IC50 ([1]; activity class)	inhibition at 0.5 µM [2]	IC50 ([1]; numeric values, unit inferred)	Structure (SMILES)
< 50 nM	70 to 100%		Cc1cc(C(=O)c2ccccc2)sc1-c1ccc(NC(=O)c2c(F)cccc2F)cc1 [A]
< 50 nM	50 to 70%		Cc1cc(C(=O)c2cccnc2)sc1-c1ccc(NC(=O)c2c(F)cccc2F)nc1 [B]
< 50 nM	< 50%		CC(C)c1sc(-c2cccnc2)nc1-c1ccc(NC(=O)c2c(F)cccc2F)nc1 [C]
< 50 nM	50 to 70%		Cc1sc(-c2ccccn2)nc1-c1ccc(NC(=O)c2c(F)cccc2F)nc1 [Compound 1, 2,6-Difluoro-N-(5-(5-methyl-2-(pyridin-2-yl)thiazol-4-yl)pyridin-2-yl)benzamide]
< 50 nM	70 to 100%		Cc1sc(-c2ccccn2)nc1-c1ccc(NC(=O)c2c(F)cccc2F)cc1 [Compound 2, 2,6-Difluoro-N-(4-(5-methyl-2-(pyridin-2-yl)thiazol-4-yl)phenyl)benzamide]
< 50 nM	70 to 100%		Cc1sc(-c2cccnc2)nc1-c1ccc(NC(=O)c2c(F)cccc2F)nc1 [Compound 3, 2,6-Difluoro-N-(5-(5-methyl-2-(pyridin-3-yl)thiazol-4-yl)pyridin-2-yl)benzamide]
< 50 nM	< 50%		Cc1sc(-c2cnn(C)c2)nc1-c1ccc(NC(=O)c2c(F)cccc2F)nc1 [Compound 4, 2,6-Difluoro-N-(5-(5-methyl-2-(1-methyl-1H-pyrazol-4-yl)thiazol-4-yl)pyridin-2-yl)benzamide]
> 100 nM			CC(C)c1sc(-c2cnn(C)c2)nc1-c1ccc(NC(=O)c2ccc(F)cc2F)nc1 [Compound 5, 2,4-Difluoro-N-(5-(5-isopropyl-2-(1-methyl-1H-pyrazol-4-yl)thiazol-4-yl)pyridin-2-yl)benzamide]
< 50 nM	70 to 100%		Cc1cc(C(=O)c2cccnc2)sc1-c1ccc(NC(=O)c2c(F)cccc2F)cc1 [Compound 6, 2,6-difluoro-N-(4-(3-methyl-5-nicotinoylthiophen-2-yl)phenyl)benzamide]
< 50 nM	70 to 100%		Cc1cc(Cc2cccnc2)sc1-c1ccc(NC(=O)c2c(F)cccc2F)cc1 [Compound 7, 2,6-difluoro-N-(4-(3-methyl-5-(pyridin-3-ylmethyl)thiophen-2-yl)phenyl)benzamide]
< 50 nM	70 to 100%		Cc1cc(CCc2cccnc2)sc1-c1ccc(NC(=O)c2c(F)cccc2F)cc1 [Compound 8, 2,6-difluoro-N-(4-(3-methyl-5-(2-(pyridin-3-yl)ethyl)thiophen-2-yl)phenyl)benzamide]
> 100 nM			CC(C)(O)c1sc(-c2cccnc2)cc1-c1ccc(NC(=O)c2c(F)cccc2F)nc1 [Compound 9, 2,6-difluoro-N-(5-(2-(2-hydroxypropan-2-yl)-5-(pyridin-3-yl)thiophen-3-yl)pyridin-2-yl)benzamide]
< 50 nM	50 to 70%		C=C(C)c1sc(-c2cccnc2)cc1-c1ccc(NC(=O)c2c(F)cccc2F)nc1 [Compound 10, 2,6-difluoro-N-(5-(2-(prop-1-en-2-yl)-5-(pyridin-3-yl)thiophen-3-yl)pyridin-2-yl)benzamide]
> 100 nM			CC(C)(O)c1sc(-c2cccnc2)cc1-c1cnc(NC(=O)c2c(F)cccc2F)cn1 [Compound 12, 2,6-difluoro-N-(5-(2-(2-hydroxypropan-2-yl)-5-(pyridin-3-yl)thiophen-3-yl)pyrazin-2-yl)benzamide]
50 to 100 nM			C=C(C)c1sc(-c2cccnc2)cc1-c1cnc(NC(=O)c2c(F)cccc2F)cn1 [Compound 13, 2,6-difluoro-N-(5-(2-(prop-1-en-2-yl)-5-(pyridin-3-yl)thiophen-3-yl)pyrazin-2-yl)benzamide]
< 50 nM			O=C(Nc1ccc(-c2cc(-c3cccnc3)sc2-c2cccnc2)cc1)c1c(F)cccc1F [Compound 16, N-(4-(2,5-di(pyridin-3-yl)thiophen-3-yl)phenyl)-2,6-difluorobenzamide]
< 50 nM			Cc1sc(-c2cccnc2)cc1-c1cnc(NC(=O)c2c(F)cccc2F)cn1 [Compound 17, 2,6-difluoro-N-(5-(2-methyl-5-(pyridin-3-yl)thiophen-3-yl)pyrazin-2-yl)benzamide]
		10 nM	CCc1sc(-c2cccnc2)nc1-c1ccc(NC(=O)c2cccc(F)c2C)nc1 [Compound A2]
		16 nM	CCc1sc(-c2ccc(N)nc2)nc1-c1ccc(NC(=O)c2cccc(F)c2C)nc1 [Compound A3]
		17 nM	Cc1sc(-c2ccc(N)nc2)nc1-c1cnc(NC(=O)c2c(F)cccc2F)cn1 [Compound A4]
		77 nM	Cc1cccc(F)c1C(=O)Nc1ccc(-c2nc(-c3cnn(C)c3)sc2C)cn1 [Compound A5]

IC50 ([1]; activity class)	inhibition at 0.5 µM [2]	IC50 ([1]; numeric values, unit inferred)	Structure (SMILES)
		21 nM	Cc1cc(-c2nc(-c3ccc(NC(=O)c4cccc(F)c4C)nc3)c(C)s2)no1 [Compound A6]
		21 nM	CCc1sc(-c2ccc(C)nc2)nc1-c1ccc(NC(=O)c2cccc(F)c2C)nc1 [Compound A7]
		26 nM	Cc1cccc(F)c1C(=O)Nc1ccc(-c2nc(-c3ccc(N)nc3)sc2C)cn1 [Compound A8]
		28 nM	CCc1sc(-c2cccnc2C)nc1-c1ccc(NC(=O)c2cccc(F)c2C)nc1 [Compound A9]
		40 nM	CCc1sc(-c2cnn(C)c2)nc1-c1cnc(NC(=O)c2c(F)cccc2F)cn1 [Compound A10]
		43 nM	Cc1sc(-c2cnccn2)nc1-c1ccc(NC(=O)c2cccc(F)c2C)nc1 [Compound A11]
		44 nM	CCc1sc(-c2cnn(C)c2)nc1-c1ccc(C(=O)Nc2c(C)cccc2F)cc1 [Compound A12]
< 50 nM			CC(C)c1sc(-c2cccnc2)cc1-c1cnc(NC(=O)c2c(F)cccc2F)cn1 [Compound T]
50 to 100 nM			CC(C)c1sc(-c2cccnc2)nc1-c1ccc(NC(=O)c2ccc(F)cc2F)nc1 [D]
50 to 100 nM			Cc1sc(CCc2cccnc2)nc1-c1ccc(NC(=O)c2c(F)cccc2F)nc1 [E]
< 50 nM			Cc1sc(-c2cnco2)nc1-c1ccc(NC(=O)c2c(F)cccc2F)cc1 [G]
> 100 nM			Cc1sc(-c2ncc(-c3cccnc3)s2)cc1-c1ccc(NC(=O)c2c(F)cccc2F)nc1 [I]
< 50 nM			Cc1sc(-c2ncco2)cc1-c1ccc(NC(=O)c2c(F)cccc2F)cc1 [J]
> 100 nM			Cc1sc(-c2cncn2CCN(C)C)cc1-c1ccc(NC(=O)c2c(F)cccc2F)cc1 [K]
> 100 nM			CC(=O)c1cc(-c2ccc(NC(=O)c3c(F)cccc3F)cc2)c(C)s1 [L]
> 100 nM			COC(=O)c1cc(NC(=O)c2c(F)cccc2F)ccc1-c1cc(-c2cccnc2)sc1CO [M]
< 50 nM			CC(C)(O)c1sc(-c2cccnc2)cc1-c1ccc(NC(=O)c2c(F)cccc2F)cc1 [N]
< 50 nM			Cc1sc(C(=O)c2ccncc2)cc1-c1ccc(NC(=O)c2c(F)cccc2F)cc1 [P]
< 50 nM			Cc1sc(C#Cc2cccnc2)cc1-c1ccc(NC(=O)c2c(F)cccc2F)cc1 [Q]
< 50 nM			Cc1sc(CCc2cccnc2)cc1-c1ccc(NC(=O)c2c(F)cccc2F)cc1 [R]
< 50 nM			Cc1sc(-c2ncco2)cc1-c1cnc(NC(=O)c2c(F)cccc2F)cn1 [S]
